Experiments:
WI-38 cells = assay: Viability of WI-38 cells, Alamar Blue (Assay 5); assay type: cell-based, human
Description: (§1) Human diploid lung fibroblasts (WI-38 cells) were incubated overnight in the presence of IL-1α (1 nM) and test compound (3 and 30 μM) in modified Eagle medium at pH 7.3 containing foetal bovine serum (10%) at 37° C. The supernatant was assayed by radioimmunoassay for released PGE2 and the inhibition of PGE2 by test compound calculated (Table 10). The viability of the cells was then assessed by washing with Roswell Park Memorial Institute medium and adding Alamar Blue reagent before being incubated at 37° C. for 4 h. Living cells take up Alamar Blue and emit fluorescence when excited. Fluorescence intensity was measured using a SpectroFluor Plus plate reader with excitation at 530 nm and emission at 590 nm (Table 10).

TRPV1 receptor = TRPV1 receptor (Rattus norvegicus, UniProt O35433); assay: TRPV1 modulation in DRG neurones: CGRP release in absence and presence of capsaicin (Assay 2); assay type: cell-based; set-up: The culture used for this experiment contained sensory neurones, Schwann cells and fibroblasts; endogenous in cells; host or cells: primary rat DRG sensory neurone culture (with Schwann cells and fibroblasts); conditions: 20 min; for inhibition at 3 µM: 3 μM with capsaicin 1 μM; for inhibition at 3 µM / inhibition at 30 µM: −ve: inhibition, +ve: potentiation of capsaicin response, read-out: Effect of test compounds on capsaicin (1 μM)-induced CGRP release (%); for inhibition at 30 µM: 30 μM with capsaicin 1 μM; for Emax at 3 µM: test compound alone 3 μM; for Emax at 3 µM / Emax at 30 µM: rat DRG sensory neurones, read-out: CGRP release (% of capsaicin (1 μM) response); for Emax at 30 µM: test compound alone 30 μM
[1] = tested on: histamine-induced contractions in guinea pig ileum; assay: Inhibition of histamine-induced contractions in guinea pig ileum (Assay 3); conditions: Cavia porcellus, histamine 1.7 μM, read-out: Inhibition of histamine-induced contraction (%)
Description: (§2) Duncan Hartley derived male guinea pigs (325±25 g) were suppressed by CO2 overexposure, the abdominal cavity was exposed and ileal segments were removed. Small strips of ileum were suspended in organ baths containing Krebs solution (composition in g/l: NaCl 6.89, KCl 0.35, CaCl2 0.277, KH2PO4 0.163, MgSO4.7H2O 0.296, NaHCO3 2.1 glucose 1.8). The solution was kept at 32° C. and gassed with O2 (95%)-CO2 (5%) to maintain pH at 7.4. Mechanical activity was recorded by means of isotonic transducers. A resting tension of 1 g was applied to muscle strips before being equilibrated for 1 h, prior to test compound addition. Each preparation was washed twice at 15 min intervals during the equilibration.
(§3) Histamine (1.7 μM; approximately EC60-70) or 5-hydroxytryptamine (5-HT, 2.6 μM; approximately EC60-70) was applied for 5 min and the amplitude of the contraction recorded. The histamine or 5-HT was then washed out until the ileal tissue returned to baseline. Five min after returning to baseline test compound (3 and 30 μM) was applied and the amplitude of the contraction (if any) was recorded. In the continuous presence of test compound, histamine or 5-HT was re-applied and the inhibition of the response was recorded.

[2] = tested on: 5-HT-induced contractions in guinea pig ileum; assay: Inhibition of 5-HT-induced contractions in guinea pig ileum (Assay 3); conditions: Cavia porcellus, 5-HT 2.6 μM, read-out: Inhibition of 5-HT-induced contraction (%)
Description: as §2, §3

[3] = tested on: α-smooth muscle actin (α-SMA) mRNA; assay: Anti-remodelling activity in human lung fibroblasts (HFL1): TGFβ-induced α-SMA mRNA (Assay 4); assay type: cell-based; conditions: Homo sapiens, HFL1 cells, TGFβ 10 ng/ml, 24 h, read-out: Inhibition of α-SMA mRNA synthesis (%)
Description: A human foetal lung fibroblast cell line (HFL1 cells; ATCC accession number CCl-153) was used in this assay. The cells were cultured in medium containing a low level of foetal bovine serum (FBS; 0.1%) for 24 h. After 24 h of culturing the medium was changed to: (a) Control medium (medium containing 10% FBS, 1% phosphate saline and 0.5 mM L-glutamine), (b) Control medium and transforming growth factor beta (TGFβ; 10 ng/ml), (c) Control medium and TGFβ and test compounds (3 and 30 μM). The medium was collected after 24 h and the total mRNA extracted in Tri-reagent. The level of mRNA coding for α-smooth muscle actin (α-SMA) was assessed by real-time reverse transcription-polymerase chain reaction (rtRT-PCR) using primer couples that allow the amplification of α-SMA mRNA. Liver glyceraldehydes 3-phosphate dehydrogenase (GADPH) was used as a reference marker in this experiment. The inhibition of the TGTβ-induced overexpression of α-SMA mRNA by the test compounds was quantified.

5-lipoxygenase = target: T1, 5-lipoxygenase (Homo sapiens, UniProt P09917); assay: 5-lipoxygenase activity (LTB4) in human peripheral blood mononuclear leukocytes (Assay 6); assay type: cell-based; conditions: human PBMLs, A23187 30 μM, read-out: Inhibition of 5-LO (%)
T1 construct: endogenous in cells; host or cells: human peripheral blood mononuclear leukocytes (PBMLs)
T1 sequence (P09917 1-674): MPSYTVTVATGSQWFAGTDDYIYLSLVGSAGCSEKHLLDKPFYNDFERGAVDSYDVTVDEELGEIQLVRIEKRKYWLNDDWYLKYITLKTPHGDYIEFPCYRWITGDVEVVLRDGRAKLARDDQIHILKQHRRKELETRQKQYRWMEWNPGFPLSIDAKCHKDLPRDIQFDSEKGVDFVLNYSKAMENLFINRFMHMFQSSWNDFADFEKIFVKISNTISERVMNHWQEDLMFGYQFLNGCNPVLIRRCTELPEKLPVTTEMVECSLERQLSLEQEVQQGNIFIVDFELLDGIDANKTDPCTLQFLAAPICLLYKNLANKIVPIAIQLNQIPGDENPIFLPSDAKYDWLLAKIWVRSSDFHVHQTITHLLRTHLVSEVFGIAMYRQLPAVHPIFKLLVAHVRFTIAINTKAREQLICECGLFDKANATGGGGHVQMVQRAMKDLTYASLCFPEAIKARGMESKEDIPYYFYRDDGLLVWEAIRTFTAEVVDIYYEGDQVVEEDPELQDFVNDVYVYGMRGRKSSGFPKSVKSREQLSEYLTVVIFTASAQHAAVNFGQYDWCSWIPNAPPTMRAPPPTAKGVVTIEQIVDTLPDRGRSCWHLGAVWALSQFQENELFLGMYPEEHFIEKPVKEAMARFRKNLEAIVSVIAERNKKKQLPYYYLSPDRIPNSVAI
Description: Human peripheral blood mononuclear leukocytes (PBMLs) were isolated using a Ficoll-Paque density gradient. Human peripheral blood mononuclear leukocytes (5×10^6 cells) were incubated with A23187 (30 μM), a divalent cation ionophore used to initiate the biosynthesis of […], and with vehicle (0.1% DMSO) or test compound (3 and 30 μM) in Hank's balanced salt solution (HBBS) buffer, pH 7.4 at 37° C. for 15 min. The PBML solution was neutralized with NaOH (1 N) and centrifuged at 1000 g for 10 min and the supernatant collected. The concentration of leukotriene B4 (LTB4) in the supernatant was measured using an enzyme immunoassay kit (Assay Design Inc.). A reduction in the concentration of LTB4 indicated an inhibition of the enzyme 5-lipoxygenase (Table 11).

[4] = tested on: IL-1α-induced PGE2 release; assay: IL-1α-induced PGE2 release in human diploid lung fibroblasts (WI-38) (Assay 5); assay type: cell-based; conditions: Homo sapiens, WI-38 cells, IL-1α 1 nM, overnight
Description: as §1

Chain of TRPV1 receptor (O35433 whole entry): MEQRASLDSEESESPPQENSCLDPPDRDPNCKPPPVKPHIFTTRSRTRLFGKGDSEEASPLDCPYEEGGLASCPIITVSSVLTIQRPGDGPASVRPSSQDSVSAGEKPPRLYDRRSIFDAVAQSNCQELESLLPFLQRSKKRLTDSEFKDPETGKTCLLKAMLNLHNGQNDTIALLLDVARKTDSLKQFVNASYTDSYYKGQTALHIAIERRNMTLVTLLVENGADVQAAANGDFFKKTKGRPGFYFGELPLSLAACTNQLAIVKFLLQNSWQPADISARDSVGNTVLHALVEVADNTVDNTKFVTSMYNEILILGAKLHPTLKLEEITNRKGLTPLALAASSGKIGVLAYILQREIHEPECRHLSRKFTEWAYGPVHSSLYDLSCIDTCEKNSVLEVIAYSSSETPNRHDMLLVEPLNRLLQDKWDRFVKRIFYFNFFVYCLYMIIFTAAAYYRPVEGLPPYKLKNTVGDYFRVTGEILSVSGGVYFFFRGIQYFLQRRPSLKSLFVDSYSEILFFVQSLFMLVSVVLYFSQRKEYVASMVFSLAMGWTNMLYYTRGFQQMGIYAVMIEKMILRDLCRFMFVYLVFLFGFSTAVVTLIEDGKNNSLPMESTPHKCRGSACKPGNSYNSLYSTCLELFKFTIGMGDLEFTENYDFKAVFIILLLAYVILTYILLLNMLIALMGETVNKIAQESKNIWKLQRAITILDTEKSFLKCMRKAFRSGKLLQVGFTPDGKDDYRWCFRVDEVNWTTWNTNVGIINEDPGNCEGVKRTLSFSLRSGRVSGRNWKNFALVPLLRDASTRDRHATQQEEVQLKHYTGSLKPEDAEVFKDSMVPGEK

| Compound | inhibition at 3 µM (TRPV1 receptor) [%] | inhibition at 30 µM (TRPV1 receptor) [%] | Emax at 3 µM (TRPV1 receptor) [%] | Emax at 30 µM (TRPV1 receptor) [%] | inhibition at 3 µM (5-lipoxygenase) [%] | inhibition at 30 µM (5-lipoxygenase) [%] | Decrease in cell viability (%) (WI-38 cells; 3 μM) | Decrease in cell viability (%) (WI-38 cells; 30 μM) | inhibition at 3 µM [1] [%] | inhibition at 30 µM [1] [%] | inhibition at 3 µM [2] [%] | inhibition at 3 µM [3] [%] | inhibition at 30 µM [3] [%] | inhibition at 3 µM [4] [%] | inhibition at 30 µM [4] [%] | inhibition at 30 µM [2] [%] |
| --- | --- | --- | --- | --- | --- | --- | --- | --- | --- | --- | --- | --- | --- | --- | --- | --- |
| COc1cc(CCC(=O)CC(=O)Cc2cccc3ccccc23)ccc1O [Compound 29, 6-(4-Hydroxy-3-methoxyphenyl)-1-naphthalen-1-yl-hexane-2,4-dione] | 46 | -41 | 65 | 164 | 47 | 98 | −1 | 12 | 17 | 89 | 5 | 33 | 86 | 86 | 99 | – |
| COc1cc(CCC(=O)CC(=O)Cc2ccccc2)ccc1O [Compound 28, 6-(4-Hydroxy-3-methoxyphenyl)-1-phenyl-hexane-2,4-dione] | 51 | -29 | 29 | 107 | 35 | 98 | 1 | 6 | 7 | 18 | 6 | 12 | 47 | 87 | 99 | 85 |
| COc1cc(CCC(=O)CC(=O)c2ccc(O)c(OC)c2)ccc1O [Compound 15, 1,5-Bis(4-hydroxy-3-methoxyphenyl)-pentane-1,3-dione] | 18 | 27 | 34 | 34 | 16 | 63 | −2 | −1 | 0 | 13 | 0 | 13 | 29 | 49 | 95 | 54 |
| CCC(C(=O)CCc1ccc(O)c(OC)c1)C(=O)c1ccccc1 (stereo not drawn) [Compound 12, 2-Ethyl-5-(4-hydroxy-3-methoxyphenyl)-1-phenyl-pentane-1,3-dione] | 13 | 14 | 19 | 73 | 41 | 94 | 6 | −5 | 3 | 41 | 3 | 9 | 34 | 69 | 101 | 47 |
| COc1cc(CCC(=O)CC(=O)c2cccc(Cl)c2)ccc1O [Compound 22, 1-(3-Chlorophenyl)-5-(4-hydroxy-3-methoxyphenyl)pentane-1,3-dione] | 2 | -58 | 60 | 163 | 62 | 98 | 3 | 9 | 11 | 65 | 18 | -5 | 25 | 93 | 100 | 94 |

Second part, led by results:

| inhibition at 3 µM (TRPV1 receptor) [%] | inhibition at 30 µM (TRPV1 receptor) [%] | Emax at 3 µM (TRPV1 receptor) [%] | Emax at 30 µM (TRPV1 receptor) [%] | inhibition at 3 µM (5-lipoxygenase) [%] | inhibition at 30 µM (5-lipoxygenase) [%] | Compound | Decrease in cell viability (%) (WI-38 cells; 3 μM) | Decrease in cell viability (%) (WI-38 cells; 30 μM) | inhibition at 3 µM [1] [%] | inhibition at 30 µM [1] [%] | inhibition at 3 µM [2] [%] | inhibition at 3 µM [3] [%] | inhibition at 30 µM [3] [%] | inhibition at 3 µM [4] [%] | inhibition at 30 µM [4] [%] | inhibition at 30 µM [2] [%] |
| --- | --- | --- | --- | --- | --- | --- | --- | --- | --- | --- | --- | --- | --- | --- | --- | --- |
| 25 | -22 | 45 | 104 | 64 | 97 | COc1cc(CCC(=O)C(C)(C)C(=O)c2ccc(C)cc2)ccc1O [Compound 81, 5-(4-Hydroxy-3-methoxyphenyl)-2,2-dimethyl-1-p-tolylpentane-1,3-dione] | 3 | −7 | 22 | 94 | 21 | -2 | 55 | 62 | 101 | 95 |
| 9 | 4 | 55 | 107 | 74 | 99 | COc1cc(CCC(=O)CC(=O)c2ccc(Cl)cc2C)ccc1O [Compound 76, 1-(4-Chloro-2-methylphenyl)-5-(4-hydroxy-3-methoxyphenyl)pentane-1,3-dione] | 4 | 26 | 9 | 81 | 26 | -1 | 94 | 99 | 101 | 72 |

— patent US7589123B2, “Chemical compounds” (Phytopharm PLC, priority 2006, dated 2009)
